Measurements as given in patent publication US9784753B2, “Biological system to test in vitro if a substance is immune reactive” (priority 1996, dated 2017).

How the values were obtained:
[1] = system: frozen whole blood stimulated with LPS; experiment: Modulation of LPS-stimulated IL-1 release in frozen whole blood; format: cell-based, human; details: depending on amount of substance administered; FIGS. 2 and 3
Protocol: Citrated blood from healthy donors was mixed with 10% dimethylsulfoxide (Merck, Darmstadt) immediately after it was drawn. Aliquots of 100 microliters were distributed in 2 milliliter reaction vessels (Eppendorf, Hamburg) and transferred to a −70° C. cold box in a commercial freezing system (a person, Nalgene). Thawing was done in a thermoshaker (Eppendorf, Hamburg) at 37° C. Immediately after thawing, 900 microliters of RPMI 1640 (Gibco, Eggenstein), warmed to 37° C., was added. Then the test substances, such as dilutions of a pyrogen, in this case, lipopolysaccharide of Salmonella abortus equi (Sigma, Deisenhofen) were added. After a four-hour incubation at 37° C., for example, in an incubator (Heraeus, Fellbach) with 5% carbon dioxide the incubated samples are shaken and centrifuged. Endogenous pyrogens, IL-1β in this case, are determined in the cell-free supernatant, after freezing, if desired. […] IL-1β was determined by ELISA (enzyme-linked immunosorbent assay) from antibodies from the company Pharmingen (Hamburg).

[2] = system: cryopreserved blood from four healthy donors; experiment: IL-1β release in thawed cryopreserved whole blood on contact with pyrogen (ELISA); format: cell-based, human; details: thawed deep-frozen citrated blood with 10% dimethylsulfoxide, diluted with RPMI 1640, four-hour incubation at 37° C., FIG. 1
Protocol: Citrated blood from healthy donors was mixed with 10% dimethylsulfoxide (Merck, Darmstadt) immediately after it was drawn. Aliquots of 100 microliters were distributed in 2 milliliter reaction vessels (Eppendorf, Hamburg) and transferred to a −70° C. cold box in a commercial freezing system (Mr. Freezy, Nalgene). Thawing was done in a thermoshaker (Eppendorf, Hamburg) at 37° C. Immediately after thawing, 900 microliters of RPMI 1640 (Gibco, Eggenstein), warmed to 37° C., was added. Then the test substances, such as dilutions of a pyrogen, in this case, lipopolysaccharide of Salmonella abortus equi (Sigma, Deisenhofen) were added. After a four-hour incubation at 37° C., for example, in an incubator (Heraeus, Fellbach) with 5% carbon dioxide the incubated samples are shaken and centrifuged. Endogenous pyrogens, IL-1β in this case, are determined in the cell-free supernatant, after freezing, if desired. […] IL-1β was determined by ELISA (enzyme-linked immunosorbent assay) from antibodies from the company Pharmingen (Hamburg).

| Compound | release of IL-1 in frozen whole blood stimulated with LPS [1] | release of endogenous pyrogens (IL-1β) [2] |
| --- | --- | --- |
| Cn1cnc([N+](=O)[O-])c1Sc1ncnc2[nH]cnc12 [azathioprin] | dependence of release of IL-1 | – |
| lipopolysaccharide of Salmonella abortus equi | – | release of endogenous pyrogens in the presence of minimal amounts of pyrogens |
